Assay results from patent publication US9694021B2, “Pharmaceutical compositions with phosphonium antimicrobial agents” (Alcon Research, Ltd., priority 2010, dated 2017).

Legend:
Format in all cases: cell-based
Staph Aureus = experiment: Preservative efficacy test (PET), Staph Aureus; settings: boric acid/mannitol/NaCl, pH 6.0
Description: (§1) The present invention is particularly useful for the provision of multi-dose pharmaceutical (e.g., ophthalmic) compositions that have sufficient antimicrobial activity to allow the compositions to satisfy the USP preservative efficacy requirements, as well as other preservative efficacy standards for aqueous pharmaceutical compositions.
(§2) The preservative efficacy standards for multi-dose ophthalmic solutions in the U.S. and other countries/regions are set forth in the following table:
(§3) Concentrations for the various ingredients of the compositions of the examples provided below are w/v % unless otherwise specifically stated. The compositions of Examples A-D and their preservation efficacy testing (PET) results are provided below.

Pseudomonas A. = experiment: Preservative efficacy test (PET), Pseudomonas A.; settings: boric acid/mannitol/NaCl, pH 6.0
Description: as §1, §2, §3

E. Coli = experiment: Preservative efficacy test (PET), E. Coli; settings: boric acid/mannitol/NaCl, pH 6.0
Description: as §1, §2, §3

Candida A. = experiment: Preservative efficacy test (PET), Candida A.; settings: boric acid/mannitol/NaCl, pH 6.0
Description: as §1, §2, §3

Aspergillus N. = experiment: Preservative efficacy test (PET), Aspergillus N.; settings: boric acid/mannitol/NaCl, pH 6.0
Description: as §1, §2, §3

Bacteria, Fungi = experiment: PET overall result (Pass/Fail against USP / Ph. Eur. criteria); settings: for PET Results (Pass/Fail): boric acid/mannitol/NaCl, pH 6.0
Description: as §1, §2, §3

canine epithelial cells = experiment: Cytotoxicity, neutral red retention
Description: FIGS. 1 and 2 illustrate the relative cytotoxicity of compounds, some of which are in accordance with the present invention.
FIGS. 1 and 2 illustrate the cytotoxicity of the compounds shown in the above examples. In particular, these Figures show the neutral red retention of canine epithelial cells for the various compounds with the greater neutral red retention showing the lower the cytotoxicity. […] As such, many of these phosphonium antimicrobial agents can be used as suitable replacements for benzalkonium chloride particularly in circumstances where benzalkonium chloride is unsuitable (e.g., is incompatible with other ingredients in a solution).

`OC[P+](CO)(CO)CO.[Cl-]` [Tetrakis-Hydroxymethyl-Phosphonium Chloride] was tested, and the “Staph Aureus (6 Hr), PET log order reduction” value (Staph Aureus; 0.0025 % w/v) was 5.0/5.0/, the “Staph Aureus (6 Hr), PET log order reduction” value (Staph Aureus; 0.005 % w/v) was 5.0/5.0/ and the “Staph Aureus (6 Hr), PET log order reduction” value (Staph Aureus; 0.01 % w/v) was 5.0/5.0/. The “Staph Aureus (7 Day), PET log order reduction” value (Staph Aureus; 0.0025 % w/v) was 5.0/5.0/5.0, the “Staph Aureus (7 Day), PET log order reduction” value (Staph Aureus; 0.005 % w/v) was 5.0/5.0/5.0 and the “Staph Aureus (7 Day), PET log order reduction” value (Staph Aureus; 0.01 % w/v) was 5.0/5.0/5.0. The “Staph Aureus (14 Day), PET log order reduction” value (Staph Aureus; 0.0025 % w/v) was 5.0/5.0/5.0, the “Staph Aureus (14 Day), PET log order reduction” value (Staph Aureus; 0.005 % w/v) was 5.0/5.0/5.0 and the “Staph Aureus (14 Day), PET log order reduction” value (Staph Aureus; 0.01 % w/v) was 5.0/5.0/5.0. For the same molecule, the “Staph Aureus (24 Hr), PET log order reduction” value (Staph Aureus; 0.0025 % w/v) was 5.0/5.0/, the “Staph Aureus (24 Hr), PET log order reduction” value (Staph Aureus; 0.005 % w/v) was 5.0/5.0/ and the “Staph Aureus (24 Hr), PET log order reduction” value (Staph Aureus; 0.01 % w/v) was 5.0/5.0/. For the same molecule, the “Staph Aureus (28 Day), PET log order reduction” value (Staph Aureus; 0.0025 % w/v) was 5.0/5.0/5.0, the “Staph Aureus (28 Day), PET log order reduction” value (Staph Aureus; 0.005 % w/v) was 5.0/5.0/5.0 and the “Staph Aureus (28 Day), PET log order reduction” value (Staph Aureus; 0.01 % w/v) was 5.0/5.0/5.0. For the same molecule, the “Pseudomonas A. (6 Hr), PET log order reduction” value (Pseudomonas A.; 0.0025 % w/v) was 3.3, the “Pseudomonas A. (6 Hr), PET log order reduction” value (Pseudomonas A.; 0.005 % w/v) was 5.0/5.0/ and the “Pseudomonas A. (6 Hr), PET log order reduction” value (Pseudomonas A.; 0.01 % w/v) was 5.0/5.0/. For the same molecule, the “Pseudomonas A. (7 Day), PET log order reduction” value (Pseudomonas A.; 0.0025 % w/v) was 5.0/5.0/5.0, the “Pseudomonas A. (7 Day), PET log order reduction” value (Pseudomonas A.; 0.005 % w/v) was 5.0/5.0/5.0 and the “Pseudomonas A. (7 Day), PET log order reduction” value (Pseudomonas A.; 0.01 % w/v) was 5.0/5.0/5.0. The “Pseudomonas A. (14 Day), PET log order reduction” value (Pseudomonas A.; 0.0025 % w/v) was 5.0/5.0/5.0, the “Pseudomonas A. (14 Day), PET log order reduction” value (Pseudomonas A.; 0.005 % w/v) was 5.0/5.0/5.0 and the “Pseudomonas A. (14 Day), PET log order reduction” value (Pseudomonas A.; 0.01 % w/v) was 5.0/5.0/5.0. For the same molecule, the “Pseudomonas A. (24 Hr), PET log order reduction” value (Pseudomonas A.; 0.0025 % w/v) was 5.0, the “Pseudomonas A. (24 Hr), PET log order reduction” value (Pseudomonas A.; 0.005 % w/v) was 5.0/5.0/ and the “Pseudomonas A. (24 Hr), PET log order reduction” value (Pseudomonas A.; 0.01 % w/v) was 5.0/5.0/. The “Pseudomonas A. (28 Day), PET log order reduction” value (Pseudomonas A.; 0.0025 % w/v) was 5.0/5.0/5.0, the “Pseudomonas A. (28 Day), PET log order reduction” value (Pseudomonas A.; 0.005 % w/v) was 5.0/5.0/5.0 and the “Pseudomonas A. (28 Day), PET log order reduction” value (Pseudomonas A.; 0.01 % w/v) was 5.0/5.0/5.0. For the same molecule, the “E. Coli (6 Hr), PET log order reduction” value (E. Coli; 0.0025 % w/v) was 5.1/5.1/, the “E. Coli (6 Hr), PET log order reduction” value (E. Coli; 0.005 % w/v) was 5.1/5.1/ and the “E. Coli (6 Hr), PET log order reduction” value (E. Coli; 0.01 % w/v) was 5.1/5.1/. The “E. Coli (7 Day), PET log order reduction” value (E. Coli; 0.0025 % w/v) was 5.1/5.1/5.1, the “E. Coli (7 Day), PET log order reduction” value (E. Coli; 0.005 % w/v) was 5.1/5.1/5.1 and the “E. Coli (7 Day), PET log order reduction” value (E. Coli; 0.01 % w/v) was 5.1/5.1/5.1. For the same molecule, the “E. Coli (14 Day), PET log order reduction” value (E. Coli; 0.0025 % w/v) was 5.1/5.1/5.1, the “E. Coli (14 Day), PET log order reduction” value (E. Coli; 0.005 % w/v) was 5.1/5.1/5.1 and the “E. Coli (14 Day), PET log order reduction” value (E. Coli; 0.01 % w/v) was 5.1/5.1/5.1. The “E. Coli (24 Hr), PET log order reduction” value (E. Coli; 0.0025 % w/v) was 5.1/5.1/, the “E. Coli (24 Hr), PET log order reduction” value (E. Coli; 0.005 % w/v) was 5.1/5.1/ and the “E. Coli (24 Hr), PET log order reduction” value (E. Coli; 0.01 % w/v) was 5.1/5.1/. For the same molecule, the “E. Coli (28 Day), PET log order reduction” value (E. Coli; 0.0025 % w/v) was 5.1/5.1/5.1, the “E. Coli (28 Day), PET log order reduction” value (E. Coli; 0.005 % w/v) was 5.1/5.1/5.1 and the “E. Coli (28 Day), PET log order reduction” value (E. Coli; 0.01 % w/v) was 5.1/5.1/5.1. The “Candida A. (7 Day), PET log order reduction” value (Candida A.; 0.0025 % w/v) was 0.0, the “Candida A. (7 Day), PET log order reduction” value (Candida A.; 0.005 % w/v) was 0.1 and the “Candida A. (7 Day), PET log order reduction” value (Candida A.; 0.01 % w/v) was 0.9. The “Candida A. (14 Day), PET log order reduction” value (Candida A.; 0.0025 % w/v) was 0.2, the “Candida A. (14 Day), PET log order reduction” value (Candida A.; 0.005 % w/v) was 0.7 and the “Candida A. (14 Day), PET log order reduction” value (Candida A.; 0.01 % w/v) was 2.2. For the same molecule, the “Candida A. (28 Day), PET log order reduction” value (Candida A.; 0.0025 % w/v) was 1.2, the “Candida A. (28 Day), PET log order reduction” value (Candida A.; 0.005 % w/v) was 2.0 and the “Candida A. (28 Day), PET log order reduction” value (Candida A.; 0.01 % w/v) was 3.9. For the same molecule, the “Aspergillus N. (7 D), PET log order reduction” value (Aspergillus N.; 0.0025 % w/v) was 3.1, the “Aspergillus N. (7 D), PET log order reduction” value (Aspergillus N.; 0.005 % w/v) was 3.3 and the “Aspergillus N. (7 D), PET log order reduction” value (Aspergillus N.; 0.01 % w/v) was 3.2. The “Aspergillus N. (14 D), PET log order reduction” value (Aspergillus N.; 0.0025 % w/v) was 2.9, the “Aspergillus N. (14 D), PET log order reduction” value (Aspergillus N.; 0.005 % w/v) was 3.2 and the “Aspergillus N. (14 D), PET log order reduction” value (Aspergillus N.; 0.01 % w/v) was 5.3. The “Aspergillus N. (28 Day), PET log order reduction” value (Aspergillus N.; 0.0025 % w/v) was 2.4, the “Aspergillus N. (28 Day), PET log order reduction” value (Aspergillus N.; 0.005 % w/v) was 3.2 and the “Aspergillus N. (28 Day), PET log order reduction” value (Aspergillus N.; 0.01 % w/v) was 5.3. The “PET Results (Pass/Fail)” value (Bacteria, Fungi; 0.0025 % w/v) was “Pass USP”, the “PET Results (Pass/Fail)” value (Bacteria, Fungi; 0.005 % w/v) was “Pass USP” and the “PET Results (Pass/Fail)” value (Bacteria, Fungi; 0.01 % w/v) was “Pass EP-B”. For the same molecule, the “preservation / antimicrobial efficacy, in words” value (Bacteria, Fungi; summary statements of the text on the PET tables) was “highly desirable antimicrobial efficacy”, the “cytotoxicity (neutral red retention of canine epithelial cells)” value (canine epithelial cells; FIG. 1, greater neutral red retention = lower cytotoxicity) was “extremely low level of cytotoxicity” and the “cytotoxicity (neutral red retention of canine epithelial cells)” value (canine epithelial cells; FIG. 2, various concentrations and vehicles) was “extremely low toxicity regardless of concentration and/or the vehicle”.
